Source: ChEMBL document CHEMBL1141831, “Alertenone, a dimer of suberosenone from Alertigorgia sp” (J Nat Prod, 1999)
Converted amounts (≈) assume the structure as drawn.

Legend:
M14 = experiment: Cytotoxicity against human M14 cells after 2 days by XTT assay; type: functional, cell-based; details: M14, 48 h
A549 = experiment: Cytotoxicity against human A549 cells after 2 days by XTT assay; type: functional, cell-based; details: A549, 48 h
[1] = Cytotoxicity against human LOX cells after 2 days by XTT assay; type: functional, cell-based; details: 48 h
OVCAR-3 = experiment: Cytotoxicity against human OVCAR-3 cells after 2 days by XTT assay; type: functional, cell-based; details: OVCAR-3, 48 h
SNB-19 = experiment: Cytotoxicity against human SNB-19 cells after 2 days by XTT assay; type: functional, cell-based; details: SNB-19, 48 h
HOP-92 = experiment: Cytotoxicity against human HOP-92 cells after 2 days by XTT assay; type: functional, cell-based; details: HOP-92, 48 h
SF-539 = experiment: Cytotoxicity against human SF-539 cells after 2 days by XTT assay; type: functional, cell-based; details: SF-539, 48 h
MCF7 = experiment: Cytotoxicity against human MCF7 cells after 2 days by XTT assay; type: functional, cell-based; details: MCF7, 48 h
Malme-3M = experiment: Cytotoxicity against human MALME-3M cells after 2 days by XTT assay; type: functional, cell-based; details: 48 h
SF-295 = experiment: Cytotoxicity against human SF-295 cells after 2 days by XTT assay; type: functional, cell-based; details: SF-295, 48 h
NCI-H522 = experiment: Antitumor activity against human NCI-H522 cells xenografted in mouse assessed as cell growth at 40 mg/kg by hollow-fiber assay relative to control; type: functional
U-251 = experiment: Antitumor activity against human U251 cells xenografted in mouse assessed as cell growth at 40 mg/kg by hollow-fiber assay relative to control; type: functional

SMILES	IC50 (M14)	IC50 (A549)	IC50 [1]	IC50 (OVCAR-3)	IC50 (SNB-19)	IC50 (HOP-92)	IC50 (SF-539)	IC50 (MCF7)	IC50 (Malme-3M)	IC50 (SF-295)	Activity (NCI-H522)	Activity (U-251)
C=C1C(=O)C[C@H]2[C@@H]3CC[C@H](C)[C@]12CC3(C)C [SUBEROSENONE]	0.01 µg/mL (≈ 0.0458 µM)	1.63 µg/mL (≈ 7.47 µM)	0.006 µg/mL (≈ 0.0275 µM)	0.02 µg/mL (≈ 0.0916 µM)	0.006 µg/mL (≈ 0.0275 µM)	0.11 µg/mL (≈ 0.504 µM)	0.002 µg/mL (≈ 0.00916 µM)	0.43 µg/mL (≈ 1.97 µM)	0.008 µg/mL (≈ 0.0366 µM)	0.03 µg/mL (≈ 0.137 µM)	10%	10%
C=C1C(=O)[C@H](C[C@@H]2C(=O)C[C@H]3[C@@H]4CC[C@H](C)[C@]23CC4(C)C)[C@H]2[C@@H]3CC[C@H](C)[C@]12CC3(C)C [ALERTENONE]	40 µg/mL (≈ 91.6 µM)	40 µg/mL (≈ 91.6 µM)	> 100 µg/mL	35 µg/mL (≈ 80.2 µM)	45 µg/mL (≈ 103 µM)	45 µg/mL (≈ 103 µM)	35 µg/mL (≈ 80.2 µM)	40 µg/mL (≈ 91.6 µM)	40 µg/mL (≈ 91.6 µM)	35 µg/mL (≈ 80.2 µM)	–	–
